A short description of assay [1]: Inhibition of Gamma secretase (unknown origin). Also on record: species or system Homo sapiens.
The nature of assay [2]: Inhibition of Drosophila melanogaster GABA receptor.

SMILES strings stand for the structures.

As a reminder, the IC50 is the point on the concentration scale where inhibition reaches its midpoint. The low end stands for inhibition by little substance, the high end for a need for much substance.

With `CCC[C@H](N[C@H]1CCc2cc(F)cc(F)c2C1)C(=O)Nc1cn(C(C)(C)CNCC(C)(C)C)cn1` [NIROGACESTAT], the IC50 in assay [1] was 6.2 nM.

On to `Cc1cc(C2=NO[C@@](c3cc(Cl)c(Cl)c(Cl)c3)(C(F)(F)F)C2)sc1C(=O)NCC(=O)NCC(F)(F)F` [LOTILANER], for which the IC50 in assay [2] came out at 23.8 nM.

Source of the values: ChEMBL document CHEMBL5523678, “Synthesis and clinical application of new drugs approved by FDA in 2023” (Eur J Med Chem, 2024).
